The record followed here is US8410151B2, “Aminomethyl benzene derivatives” (Actelion Pharmaceuticals Ltd, priority 2009, dated 2013).

Chain of recombinant human S1P1 receptor (P21453 whole entry): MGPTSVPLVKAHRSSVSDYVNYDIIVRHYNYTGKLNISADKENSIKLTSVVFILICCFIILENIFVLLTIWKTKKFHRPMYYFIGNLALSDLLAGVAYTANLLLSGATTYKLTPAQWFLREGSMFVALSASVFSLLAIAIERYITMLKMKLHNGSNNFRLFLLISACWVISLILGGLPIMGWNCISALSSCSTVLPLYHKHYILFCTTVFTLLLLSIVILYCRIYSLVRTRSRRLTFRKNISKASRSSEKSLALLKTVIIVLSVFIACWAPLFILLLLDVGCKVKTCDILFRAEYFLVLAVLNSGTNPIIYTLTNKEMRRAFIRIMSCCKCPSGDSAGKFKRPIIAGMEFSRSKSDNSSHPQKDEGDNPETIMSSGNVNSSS

The first test has as its target recombinant human S1P1 receptor (Homo sapiens, UniProt P21453). Put plainly: GTPγS assay to determine EC50 values. The class given is biochemical. The note with it: 35S-GTPγS binding, CHO membranes, human S1P1. The protocol: GTPγS binding assays are performed in 96 well microtiter plates (Nunc, 442587) in a final volume of 200 μl, using membrane preparations of CHO cells expressing recombinant human S1P1 receptor. Assay conditions are 20 mM Hepes (Fluka, 54461), 100 mM NaCl (Fluka, 71378), 5 mM MgCl2 (Fluka, 63064), 0.1% BSA (Calbiochem, 126609), 1 μM GDP (Sigma, G-7127), 2.5% DMSO (Fluka, 41644), 50 pM ^355-GTPγS (Amersham Biosciences, SJ1320). The pH is 7.4. Test compounds are dissolved and diluted in 100% DMSO and pre-incubated at room temperature for 30 min in 150 μl of the above assay buffer, in the absence of ^355-GTPγS. After addition of 50 μl of ^355-GTPγS, the assay is incubated for 1 h at rt. The assay is terminated by transfer of the reaction mixture to a Multiscreen plate (Millipore, MAHFC1H60) using a cell harvester from Packard Biosciences, and the plates are washed with ice-cold 10 mM Na2HPO4/NaH2PO4 (70%/30%), dried, sealed at the bottom and, after addition of 25 μl MicroScint20 (Packard Biosciences, order #6013621), sealed on the top. Membrane-bound ^35S-GTPγS is measured with a TopCount from Packard Biosciences.
EC50 is the concentration of agonist inducing 50% of the maximal specific ^35S-GTPγS binding. Specific binding is determined by subtracting non-specific binding from maximal binding. Maximal binding is the amount of cpm bound to the Multiscreen plate in the presence of 10 μM of S1P. Non-specific binding is the amount of binding in the absence of an agonist in the assay.
As to `CNCc1cccc(-c2nc(-c3cc(C)c(OCC(O)CNC(=O)CO)c(C)c3)no2)c1` (racemic) [Example 1], the EC50 is more than 10000 nM.

The same test, now with this note: 35S-GTPγS binding, membrane preparations of CHO cells expressing recombinant human S1P1 receptor.
Take `CCc1cc(-c2nc(-c3cc(C)c(OC[C@@H](O)CNC(=O)CO)c(CC)c3)no2)ccc1CN1CCCC1` [Example 105, N—((S)-3-{2-ethyl-4-[5-(3-ethyl-4-pyrrolidin-1-ylmethyl-phenyl)-[1,2,4]oxadiazol-3-yl]-6-methyl-phenoxy}-2-hydroxy-propyl)-2-hydroxy-acetamide]: the EC50 is 8 nM. The same measure, in the same setting: next, `CCCCN(C)Cc1ccc(-c2nc(-c3cc(C)c(OC[C@@H](O)CNC(=O)CO)c(CC)c3)no2)cc1C` [Example 42, N—{(S)-3-[4-(5-{4-[(butyl-methyl-amino)-methyl]-3-methyl-phenyl}-[1,2,4]oxadiazol-3-yl)-2-ethyl-6-methyl-phenoxy]-2-hydroxy-propyl}-2-hydroxy-acetamide]: 5.8 nM. Still for that read-out and setting: with `CCCc1cc(CNCC(C)C)cc(-c2nc(-c3cc(C)c(OC[C@@H](O)CNC(=O)CO)c(CC)c3)no2)c1` [Example 58, N—[(S)-3-(2-ethyl-4-{5-[3-(isobutylamino-methyl)-5-propyl-phenyl]-[1,2,4]oxadiazol-3-yl}-6-methyl-phenoxy)-2-hydroxy-propyl]-2-hydroxy-acetamide] the figure was 8.4 nM; with `CCCCN(C)Cc1cc(CC)cc(-c2nc(-c3cc(C)c(OC[C@@H](O)CNC(=O)CO)c(CC)c3)no2)c1` [Example 52, N—{(S)-3-[4-(5-{3-[(butyl-methyl-amino)-methyl]-5-ethyl-phenyl}-[1,2,4]oxadiazol-3-yl)-2-ethyl-6-methyl-phenoxy]-2-hydroxy-propyl}-2-hydroxy-acetamide], 2 nM; with `CCc1ccc(-c2nc(-c3cc(C)c(OC[C@@H](O)CNC(=O)CO)c(CC)c3)no2)cc1CN(C)C` [Example 89], 22 nM. For `CCCc1cc(CN(C)CCC)cc(-c2nc(-c3cc(C)c(OC[C@@H](O)CNC(=O)CO)c(CC)c3)no2)c1` [Example 61, N—{(S)-3-[2-ethyl-6-methyl-4-(5-{3-[(methyl-propyl-amino)-methyl]-5-propyl-phenyl}-[1,2,4]oxadiazol-3-yl)-phenoxy]-2-hydroxy-propyl}-2-hydroxy-acetamide], the EC50 came out at 3.6 nM.

In the case of `CCc1cc(CN(C)C)cc(-c2nc(-c3cc(C)c(OC[C@@H](O)CNC(=O)CO)c(CC)c3)no2)c1` [Example 49, N—((S)-3-{4-[5-(3-dimethylaminomethyl-5-ethyl-phenyl)-[1,2,4]oxadiazol-3-yl]-2-ethyl-6-methyl-phenoxy}-2-hydroxy-propyl)-2-hydroxy-acetamide], the EC50 was determined as 3.7 nM. Same read-out and setting: next, `CCc1cc(CN(C)CC)cc(-c2nc(-c3cc(C)c(OC[C@@H](O)CNC(=O)CO)c(CC)c3)no2)c1` [Example 50, N—{(S)-3-[2-ethyl-4-(5-{3-ethyl-5-[(ethyl-methyl-amino)-methyl]-phenyl}-[1,2,4]oxadiazol-3-yl)-6-methyl-phenoxy]-2-hydroxy-propyl}-2-hydroxy-acetamide]: 5.3 nM; `CCN(C)Cc1cc(C)cc(-c2nc(-c3cc(C)c(OC[C@@H](O)CNC(=O)CO)c(Cl)c3)no2)c1` [Example 148, N—{(S)-3-[2-chloro-4-(5-{3-[(ethyl-methyl-amino)-methyl]-5-methyl-phenyl}-[1,2,4]oxadiazol-3-yl)-6-methyl-phenoxy]-2-hydroxy-propyl}-2-hydroxy-acetamide]: 1.3 nM.

Consider `CCc1cc(-c2noc(-c3cc(CN4CCCC4)cc(C(C)C)c3)n2)cc(C)c1OC[C@@H](O)CNC(=O)CO` [Example 75, N—((S)-3-{2-ethyl-4-[5-(3-isopropyl-5-pyrrolidin-1-ylmethyl-phenyl)-[1,2,4]oxadiazol-3-yl]-6-methyl-phenoxy}-2-hydroxy-propyl)-2-hydroxy-acetamide], for which the EC50 came to 7.2 nM. `CCCCN(C)Cc1cc(-c2nc(-c3cc(C)c(OC[C@@H](O)CNC(=O)CO)c(CC)c3)no2)cc(C(C)C)c1` [Example 72, N—{(S)-3-[4-(5-{3-[(butyl-methyl-amino)-methyl]-5-isopropyl-phenyl}-[1,2,4]oxadiazol-3-yl)-2-ethyl-6-methyl-phenoxy]-2-hydroxy-propyl}-2-hydroxy-acetamide]: the EC50 came to 2.3 nM. As for `CCc1cc(-c2noc(-c3cc(C)cc(CN(C)CC(C)C)c3)n2)cc(C)c1OC[C@@H](O)CNC(=O)CO` [Example 19, N—{(S)-3-[2-ethyl-4-(5-{3-[(isobutyl-methyl-amino)-methyl]-5-methyl-phenyl}-[1,2,4]oxadiazol-3-yl)-6-methyl-phenoxy]-2-hydroxy-propyl}-2-hydroxy-acetamide], the EC50 was determined as 2.2 nM. On the same count and under the same terms, with `CCN(C)Cc1cc(C)cc(-c2nc(-c3cc(C)c(OC[C@@H](O)CO)c(Cl)c3)no2)c1` [Example 144, (S)-3-[2-chloro-4-(5-{3-[(ethyl-methyl-amino)-methyl]-5-methyl-phenyl}-[1,2,4]oxadiazol-3-yl)-6-methyl-phenoxy]-propane-1,2-diol] the figure was 2 nM; with `CCCCN(CC)Cc1cc(C)cc(-c2nc(-c3cc(C)c(OC[C@@H](O)CNC(=O)CO)c(CC)c3)no2)c1` [Example 21, N—{(S)-3-[4-(5-{3-[(butyl-ethyl-amino)-methyl]-5-methyl-phenyl}-[1,2,4]oxadiazol-3-yl)-2-ethyl-6-methyl-phenoxy]-2-hydroxy-propyl}-2-hydroxy-acetamide], 5.6 nM. On the same count and under the same terms, next, `CCc1cc(-c2noc(-c3cc(CN(C)CC(C)C)cc(C(C)C)c3)n2)cc(C)c1OC[C@@H](O)CNC(=O)CO` [Example 73, N—{(S)-3-[2-ethyl-4-(5-{3-[(isobutyl-methyl-amino)-methyl]-5-isopropyl-phenyl}-[1,2,4]oxadiazol-3-yl)-6-methyl-phenoxy]-2-hydroxy-propyl}-2-hydroxy-acetamide]: 2 nM; “N-(3-{4-[5-(4-dimethylaminomethyl-3-methyl-phenyl)-[1,2,4]oxadiazol-3-yl]-2,6-dimethyl-phenoxy}-2-hydroxy-propyl)-2-hydroxy-acetamide [Example 127]”: 8.5 nM; `CCCN(C)Cc1cc(CC)cc(-c2nc(-c3cc(C)c(OC[C@@H](O)CNC(=O)CO)c(CC)c3)no2)c1` [Example 51, N—{(S)-3-[2-ethyl-4-(5-{3-ethyl-5-[(methyl-propyl-amino)-methyl]-phenyl}-[1,2,4]oxadiazol-3-yl)-6-methyl-phenoxy]-2-hydroxy-propyl}-2-hydroxy-acetamide]: 2.4 nM. Same read-out and setting: next, `CCCCN(C)Cc1cc(CCC)cc(-c2nc(-c3cc(C)c(OC[C@@H](O)CNC(=O)CO)c(CC)c3)no2)c1` [Example 62, N—{(S)-3-[4-(5-{3-[(butyl-methyl-amino)-methyl]-5-propyl-phenyl}-[1,2,4]oxadiazol-3-yl)-2-ethyl-6-methyl-phenoxy]-2-hydroxy-propyl}-2-hydroxy-acetamide]: 3.1 nM. `CCCN(C)Cc1cc(-c2nc(-c3cc(C)c(OC[C@@H](O)CNC(=O)CO)c(CC)c3)no2)cc(C(C)C)c1` [Example 71, N—{(S)-3-[2-ethyl-4-(5-{3-isopropyl-5-[(methyl-propyl-amino)-methyl]-phenyl}-[1,2,4]oxadiazol-3-yl)-6-methyl-phenoxy]-2-hydroxy-propyl}-2-hydroxy-acetamide]: the EC50 stood at 2.1 nM. Same read-out and setting: with `CCN(C)Cc1cc(C)cc(-c2nc(-c3cc(C)c(OC[C@@H](O)CNC(=O)CO)c(C)c3)no2)c1` [Example 147, N—{(S)-3-[4-(5-{3-[(ethyl-methyl-amino)-methyl]-5-methyl-phenyl}-[1,2,4]oxadiazol-3-yl)-2,6-dimethyl-phenoxy]-2-hydroxy-propyl}-2-hydroxy-acetamide] the figure was 2 nM; with `CCc1cc(-c2nc(-c3cc(C)c(OC[C@@H](O)CNC(=O)CO)c(CC)c3)no2)ccc1CN(C)CC` [Example 100, N—{(S)-3-[2-ethyl-4-(5-{3-ethyl-4-[(ethyl-methyl-amino)-methyl]-phenyl}-[1,2,4]oxadiazol-3-yl)-6-methyl-phenoxy]-2-hydroxy-propyl}-2-hydroxy-acetamide], 1.6 nM.

The next test relates to circulating lymphocytes. Put plainly: Assessment of in vivo efficacy: circulating lymphocytes after oral administration. On the set-up: species or system normotensive male Wistar rats. The note with it: 3 h after oral administration of 10 mg/kg, male Wistar rats, compared to vehicle-treated group. The method, then:
The efficacy of the compounds of formula (I) is assessed by measuring the circulating lymphocytes after oral administration of 3 to 30 mg/kg of a compound of formula (I) to normotensive male Wistar rats. The animals are housed in climate-controlled conditions with a 12 h-light/dark cycle, and have free access to normal rat chow and drinking water.
Blood is collected before and 3, 6 and 24 h after drug administration. Full blood is subjected to hematology using Advia Hematology system (Bayer Diagnostics, Zurich, Switzerland).
All data are presented as mean±SEM. Statistical analyses are performed by analysis of variance (ANOVA) using Statistica (StatSoft) and the Student-Newman-Keuls procedure for multiple comparisons. The null hypothesis is rejected when p<0.05.
Regarding `CCc1cc(CN(C)CC(C)C)cc(-c2nc(-c3cc(C)c(OC[C@@H](O)CNC(=O)CO)c(CC)c3)no2)c1` [Example 53, N—{(S)-3-[2-ethyl-4-(5-{3-ethyl-5-[(isobutyl-methyl-amino)-methyl]-phenyl}-[1,2,4]oxadiazol-3-yl)-6-methyl-phenoxy]-2-hydroxy-propyl}-2-hydroxy-acetamide], the Lymphocyte counts is recorded as −61.0%.
